Data taken from DBAASP.
In brackets after ≈: the same amount, converted by molar mass. Several values for one entry are separate records, joined by “and”; a condition that tells them apart may be missing. Equal entries are not always repeated.

How the values were obtained:
Assay in all cases: ≥ marks a high value that may be exact or a test limit, other limits are often not marked, values filed in µg/mL are converted to µM
[1] = test system: Acinetobacter baumannii Josh 28
[2] = test system: Pseudomonas aeruginosa J4228
[3] = test system: Klebsiella pneumoniae Oschner KP-1
[4] = test system: Klebsiella aerogenes St. L P63
[5] = test system: Escherichia coli BB2013-30
[6] = test system: Enterobacter cloacae St. L P23
[7] = test system: Escherichia coli ARLG-1012
[8] = test system: Pseudomonas aeruginosa BB2013-100
[9] = test system: Acinetobacter baumannii Josh 230
Escherichia coli BW25113 = test system: Escherichia coli BW25113
[10] = test system: Enterobacter cloacae BB2012-181
[11] = test system: Enterobacter cloacae BB2013-32
[12] = test system: Klebsiella pneumoniae J3702
[13] = test system: Pseudomonas aeruginosa ATCC 27853
Escherichia coli JW55034 = test system: Escherichia coli JW55034
[14] = test system: Enterobacter asburiae St. L P23
[15] = test system: Klebsiella pneumoniae BB2009-209
[16] = test system: Staphylococcus aureus 710A
Bacillus megaterium Bm11 = test system: Bacillus megaterium Bm11
Escherichia coli ML-35 = test system: Escherichia coli ML-35
[17] = test system: Salmonella enterica subsp. enterica serovar Typhimurium ATCC 14028
[18] = test system: Escherichia coli ATCC 25922
Escherichia coli 078 = test system: Escherichia coli 078
[19] = test system: Candida parapsilosis CGMCC 2.3989
Escherichia coli K88 = test system: Escherichia coli K88
[20] = test system: Candida tropicalis CGMCC 2.1975
[21] = test system: Pseudomonas aeruginosa PAO1
[22] = test system: Lacticaseibacillus rhamnosus 7469
[23] = test system: Lactiplantibacillus plantarum 8014
Escherichia coli K99 = test system: Escherichia coli K99
Escherichia coli 987P = test system: Escherichia coli 987P
[24] = test system: Staphylococcus epidermidis ATCC 12228
[25] = test system: Salmonella enterica subsp. enterica serovar Typhimurium C77-31
Escherichia coli UB1005 = test system: Escherichia coli UB1005
[26] = test system: Staphylococcus aureus ATCC 25923
[27] = test system: Staphylococcus aureus ATCC 29213
[28] = test system: Candida albicans CGMCC 2.2086
[29] = test system: Staphylococcus epidermidis KCTC 1917
[30] = test system: Salmonella typhimurium KCTC 1926
[31] = test system: Listeria monocytogenes KCTC 19111
[32] = test system: Pseudomonas aeruginosa ATCC 15692
Escherichia coli MG1655 = test system: Escherichia coli MG1655
Bacillus subtilis 168 HT = test system: Bacillus subtilis 168 HT
[33] = test system: Pseudomonas aeruginosa H1001

For CC[C@H](C)[C@H](NC(=O)[C@H](Cc1cnc[nH]1)NC(=O)[C@H](CCCCN)NC(=O)[C@H](CCCCN)NC(=O)[C@H](CC(C)C)NC(=O)[C@H](CCCCN)NC(=O)[C@H](CCCCN)NC(=O)[C@H](CC(C)C)NC(=O)[C@H](Cc1ccccc1)NC(=O)[C@H](Cc1ccccc1)NC(=O)[C@H](CCCCN)NC(=O)[C@@H](NC(=O)CN)[C@@H](C)CC)C(N)=O [GIKFFLKKLKKHI], the MIC [1] was 1.25 µM (≈ 2 µg/mL), the MIC [2] was 10 µM (≈ 16 µg/mL) and the MIC [3] was 20 µM (≈ 32 µg/mL). The MIC [4] was 10 µM (≈ 16 µg/mL), the MIC [5] was 10 µM (≈ 16 µg/mL) and the MIC [6] was 20 µM (≈ 32 µg/mL). For the same compound, the MIC [7] was 5 µM (≈ 8 µg/mL), the MIC [8] was 20 µM (≈ 32 µg/mL) and the MIC [9] was 2.5 µM (≈ 4 µg/mL). For the same compound, the MIC (Escherichia coli BW25113) was 5 µM (≈ 8 µg/mL), the MIC [10] was 20 µM (≈ 32 µg/mL) and the MIC [11] was 10 µM (≈ 16 µg/mL). It also gave an MIC [12] of 20 µM (≈ 32 µg/mL), an MIC [13] of 5 µM (≈ 8 µg/mL) and an MIC (Escherichia coli JW55034) of 5 µM (≈ 8 µg/mL). It also gave an MIC [14] of 20 µM (≈ 32 µg/mL) and an MIC [15] of 20 µM (≈ 32 µg/mL).
With CC[C@H](C)[C@H](NC(=O)[C@H](CCCCN)NC(=O)[C@H](CCCCN)NC(=O)[C@H](CC(C)C)NC(=O)[C@H](CC(C)C)NC(=O)CN)C(=O)N[C@@H](C)C(=O)N[C@@H](CCCCN)C(=O)N[C@@H](CCCCN)C(=O)N[C@@H](C)C(=O)N[C@@H](CCCCN)C(=O)N[C@@H](CCCCN)C(=O)N[C@@H](C)C(=O)NCC(=O)N[C@@H](CCCCN)C(=O)N[C@@H](CCCCN)C(=O)N[C@@H](CC(C)C)C(=O)NCC(=O)N[C@@H](Cc1ccc(O)cc1)C(N)=O [GLLKKIAKKAKKAGKKLGY] the MIC [16] was ≥ 32 µM, the MIC (Bacillus megaterium Bm11) was ≥ 32 µM and the MIC (Escherichia coli ML-35) was 4 µM (≈ 8.17 µg/mL). The MIC [17] was > 32 µM and the MIC [13] was 8 µM (≈ 16.3 µg/mL).
CC[C@H](C)[C@H](N)C(=O)N[C@@H](Cc1cnc[nH]1)C(=O)N[C@@H](Cc1cnc[nH]1)C(=O)N[C@H](C(=O)N[C@@H](Cc1cnc[nH]1)C(=O)N[C@@H](Cc1cnc[nH]1)C(=O)N[C@@H](Cc1cnc[nH]1)C(=O)N[C@H](C(=O)N[C@@H](Cc1cnc[nH]1)C(=O)N[C@@H](Cc1cnc[nH]1)C(=O)N[C@H](C(=O)N[C@@H](Cc1cnc[nH]1)C(=O)N[C@@H](Cc1cnc[nH]1)C(=O)N[C@@H](Cc1cnc[nH]1)C(N)=O)[C@@H](C)CC)[C@@H](C)CC)[C@@H](C)CC [IHHIHHHIHHIHHH] was tested, and the MIC [18] was 64 µM and > 32 µM, the MIC (Escherichia coli 078) was ≥ 64 µM and the MIC [19] was 2 µM (≈ 3.68 µg/mL). For the same compound, the MIC (Escherichia coli K88) was ≥ 64 µM, the MIC [20] was 1 µM (≈ 1.84 µg/mL) and the MIC [21] was 64 µM (≈ 118 µg/mL). The MIC [22] was ≥ 64 µM, the MIC [23] was ≥ 64 µM and the MIC (Escherichia coli K99) was ≥ 64 µM. The MIC (Escherichia coli 987P) was ≥ 64 µM, the MIC [24] was > 64 µM and the MIC [25] was ≥ 64 µM. For the same compound, the MIC (Escherichia coli UB1005) was ≥ 64 µM, the MIC [17] was > 64 µM and the MIC [26] was > 64 µM. The MIC [27] was > 64 µM and the MIC [28] was 16 µM (≈ 29.5 µg/mL).
Compound CC(C)[C@H](NC(=O)[C@H](Cc1c[nH]c2ccccc12)NC(=O)[C@H](CCCCN)NC(=O)[C@H](CCCCN)NC(=O)[C@@H](NC(=O)[C@H](Cc1c[nH]c2ccccc12)NC(=O)[C@H](CCCCN)NC(=O)[C@H](CCCCN)NC(=O)[C@@H](NC(=O)[C@H](Cc1c[nH]c2ccccc12)NC(=O)[C@@H](N)CCCCN)C(C)C)C(C)C)C(=O)N[C@@H](CCCCN)C(N)=O [KWVKKWVKKWVK] has an MIC [18] of 1 µM (≈ 1.64 µg/mL), an MIC [29] of 4 µM (≈ 6.57 µg/mL) and an MIC [30] of 2 µM (≈ 3.28 µg/mL). For the same compound, the MIC [26] was 16 µM (≈ 26.3 µg/mL), the MIC [31] was 4 µM (≈ 6.57 µg/mL) and the MIC [32] was 4 µM (≈ 6.57 µg/mL).
In the case of CC[C@H](C)[C@H](NC(=O)[C@@H](N)CC(C)C)C(=O)N[C@H](C(=O)N[C@@H](CC(C)C)C(=O)N[C@H](C(=O)N[C@@H](CS)C(=O)N[C@@H](CCCN=C(N)N)C(=O)N[C@@H](CCCCN)C(=O)N[C@@H](CCCCN)C(=O)N[C@@H](CCCCN)C(=O)N[C@@H](CCCCN)C(=O)N1CCC[C@H]1C(=O)N[C@@H](Cc1ccccc1)C(=O)O)[C@@H](C)O)C(C)C [LIVLTCRKKKKPF], the MIC (Escherichia coli MG1655) is reported as ≥ 81 µM and the MIC (Bacillus subtilis 168 HT) is reported as ≥ 40.7 µM.
With NC(=O)[C@H](CCCN=C(N)N)NC(=O)[C@H](CCCN=C(N)N)NC(=O)[C@H](Cc1c[nH]c2ccccc12)NC(=O)[C@H](CCCN=C(N)N)NC(=O)[C@H](Cc1c[nH]c2ccccc12)NC(=O)[C@H](Cc1c[nH]c2ccccc12)NC(=O)[C@@H](N)CCCN=C(N)N [RWWRWRR] the MIC [33] was ≥ 208 µM.
Compound CC(C)C[C@H](NC(=O)[C@H](Cc1ccc(O)cc1)NC(=O)[C@@H]1CCCN1C(=O)[C@@H]1CCCN1C(=O)[C@H](CCCCN)NC(=O)[C@H](CC(=O)O)NC(=O)[C@@H](N)C(C)C)C(=O)N1CCC[C@H]1C(=O)N[C@@H](CCCN=C(N)N)C(=O)N1CCC[C@H]1C(=O)N[C@@H](CCCN=C(N)N)C(=O)N1CCC[C@H]1C(=O)N1CCC[C@H]1C(=O)N[C@@H](CCCN=C(N)N)C(=O)N[C@@H](CCCN=C(N)N)C(=O)N[C@@H](CS)C(=O)N[C@@H](Cc1ccc(O)cc1)C(=O)N[C@@H](CC(N)=O)C(=O)N[C@@H](CCCN=C(N)N)C(=O)NCC(=O)O [VDKPPYLPRPRPPRRCYNRG] has an MIC [33] of 0.0328 µM (≈ 0.08 µg/mL).
With CC[C@H](C)[C@H](NC(=O)CNC(=O)[C@H](C)NC(=O)[C@H](Cc1cnc[nH]1)NC(=O)[C@@H](NC(=O)[C@H](CCCCN)NC(=O)[C@H](Cc1ccc(O)cc1)NC(=O)[C@@H]1CCCN1C(=O)[C@@H](NC(=O)[C@H](CC(C)C)NC(=O)[C@H](CCCCN)NC(=O)[C@H](CCCCN)NC(=O)[C@@H](N)Cc1c[nH]c2ccccc12)C(C)C)[C@@H](C)CC)C(=O)O [WKKLVPYKIHAGI] the MIC (Escherichia coli MG1655) was ≥ 82 µM and the MIC (Bacillus subtilis 168 HT) was ≥ 82 µM.
